Measurements from patent publication US11919900B1 (priority 2023, dated 2024).
Values after ≈ are worked out from the molar mass of the structure shown.

Tested on: Mycobacterium tuberculosis H37Rv (ATCC: 25177)
Assay: Resazurin Microplate Assay (REMA), antitubercular activity, H37Rv
Assay type: cell-based
Conditions: Middlebrook 7H9 broth, 8 days at 37° C. then resazurin overnight

Molecule | Antitubercular activity against Mycobacterium tuberculosis H37Rv (MIC) [µg/mL]
Ethyl 4-bromo-1-(2-nitrobenzoyl)pyrrolo[1,2-a]quinoline-3-carboxylate [QUIN-KNV12] | 1

Same assay, conditions: Mycobacterium tuberculosis, 192 h, Middlebrook 7H9 broth, 8 days at 37° C. then resazurin overnight, read-out: Antitubercular activity against Mycobacterium tuberculosis H37Rv (MIC)

Molecule | MIC [µg/mL]
COC(=O)c1c(C(=O)OC)c2c(Br)cc3ccccc3n2c1C(=O)c1ccc(OC)cc1 [QUIN-KNV1, Dimethyl 4-bromo-1-(4-methoxybenzoyl)pyrrolo[1,2-a]quinoline-2,3-dicarboxylate] | 0.5 (≈ 1.01 µM)
CCOC(=O)c1cc(C(=O)c2ccc(OC)cc2)n2c1c(Br)cc1ccccc12 [QUIN-KNV2, Ethyl 4-bromo-1-(4-methoxybenzoyl)pyrrolo[1,2-a]quinoline-3-carboxylate] | 1 (≈ 2.21 µM)
COC(=O)c1c(C(=O)OC)c2c(Br)cc3ccccc3n2c1C(=O)c1ccc(Cl)cc1 [QUIN-KNV3, Dimethyl 4-bromo-1-(4-chlorobenzoyl)pyrrolo[1,2-a]quinoline-2,3-dicarboxylate] | 1 (≈ 2 µM)
CCOC(=O)c1cc(C(=O)c2ccc(Cl)cc2)n2c1c(Br)cc1ccccc12 [QUIN-KNV4, Ethyl 4-bromo-1-(4-chlorobenzoyl)pyrrolo[1,2-a]quinoline-3-carboxylate] | 8 (≈ 17.5 µM)
COC(=O)c1c(C(=O)OC)c2c(Br)cc3ccccc3n2c1C(=O)c1ccc(Br)cc1 [QUIN-KNV5, Dimethyl 4-bromo-1-(4-bromobenzoyl)pyrrolo[1,2-a]quinoline-2,3-dicarboxylate] | 0.5 (≈ 0.917 µM)
CCOC(=O)c1cc(C(=O)c2ccc(Br)cc2)n2c1c(Br)cc1ccccc12 [QUIN-KNV6, Ethyl 4-bromo-1-(4-bromobenzoyl)pyrrolo[1,2-a]quinoline-3-carboxylate] | 2 (≈ 3.99 µM)
COC(=O)c1c(C(=O)OC)c2c(Br)cc3ccccc3n2c1C(=O)c1ccc(F)cc1 [QUIN-KNV7, Dimethyl 4-bromo-1-(4-fluorobenzoyl)pyrrolo[1,2-a]quinoline-2,3-dicarboxylate] | 16 (≈ 33 µM)
CCOC(=O)c1cc(C(=O)c2ccc(F)cc2)n2c1c(Br)cc1ccccc12 [QUIN-KNV8, Ethyl 4-bromo-1-(4-fluorobenzoyl)pyrrolo[1,2-a]quinoline-3-carboxylate] | 1 (≈ 2.27 µM)
COC(=O)c1c(C(=O)OC)c2c(Br)cc3ccccc3n2c1C(=O)c1ccc(C#N)cc1 [QUIN-KNV9, Dimethyl 4-bromo-1-(4-cyanobenzoyl)pyrrolo[1,2-a]quinoline-2,3-dicarboxylate] | 8 (≈ 16.3 µM)
CCOC(=O)c1cc(C(=O)c2ccc(C#N)cc2)n2c1c(Br)cc1ccccc12 [QUIN-KNV10, Ethyl 4-bromo-1-(4-cyanobenzoyl)pyrrolo[1,2-a]quinoline-3-carboxylate] | 8 (≈ 17.9 µM)
COC(=O)c1c(C(=O)OC)c2c(Br)cc3ccccc3n2c1C(=O)c1ccccc1 [QUIN-KNV11, Dimethyl 1-benzoyl-4-bromopyrrolo[1,2-a]quinoline-2,3-dicarboxylate] | 32 (≈ 68.6 µM)
